The source of these data is US20250263376A1, “(E)-N-CINNAMOYLAMINOALKANOLS WITH MELANOGENESIS INHIBITORY ACTIVITY” (Uniwersytet Jagiellonski, priority 2024, published 2025).

Data set [1] concerns tyrosinase. The conditions noted are these: cited from earlier work; for mechanism of tyrosinase inhibition: literature [6,7].
The conditions of data set [2]: cream, 7-day application before UV exposure, compared to untreated skin; literature [8]; cited from earlier work.
Data set [3] relates to Balb/c 3T3 murine fibroblast cell line. In words: Phototoxicity, neutral red uptake in Balb/c 3T3 fibroblasts. The method, then: d) Phototoxicity Assessment Using the Balb/c 3T3 Murine Fibroblast Cell Line
Balb/c 3T3 cells, which are an immortalized murine fibroblast cell line, were purchased at ATTC and cultured in the medium recommended by the manufacturer (DMEM GlutaMAX, newborn calf serum (BCS), antibiotics). After multiplication, cells were placed in 96-well plates, which were incubated for 24 hours, after which all wells of the plates were washed with 150 μL of balanced salt solution (HBSS). Then, after drying the plates, 100 μL of a solution of the tested compounds in HBSS with 2% FBS was added to each well and incubated for an hour. After this time, some of the plates were irradiated using the Suntest CPS+sunlight simulator from Atlas with appropriate filters cutting off radiation with a wavelength <320 nm (UVA radiation intensity 5 J/cm^2). The second part of the plates was placed in radiation-free conditions for the same period of time. After the exposure time, the liquid was removed from all plates and the wells were washed twice with 150 μL of HBSS, then supplemented with fresh culture medium and incubated for 24 hours in an incubator (37° C., 5% CO2). Viability was assessed in the neutral red uptake test, which is based on the ability of the dye to penetrate only into living cells. Dye uptake was confirmed by absorbance measurement at 540 nm. […] The appropriate coefficients were also calculated: mean phototoxic effect (MPE) and photoirritation factor (PIF). PIF is the ratio of the IC50 values of unirradiated to irradiated cells, while MPE is based on the comparison of concentration-response curves.

In data set [4] the test system is reconstituted human epidermis EpiDerm. The settings on record: 21 h, 0.01 %.
Method: Phototoxicity Studies in a Model of Reconstructed Human Epidermis.
An epidermis with an area of 0.6 cm^2 was used. After receiving the tissue, the inserts were transferred to fresh medium and incubated in an incubator (5% CO2, 37° C.). All work during epidermis culture and application of the tested compounds and formulations was carried out in a laminar air flow chamber, using aseptic principles and sterile reagents and utensils. […] The applied solutions and formulation were spread on the surface of the inserts using a sterile glass bulb headed Pasteur pipette. The plates were incubated in the incubator for 21 hours, after which the inserts were transferred to new 6-well plates with 0.9 mL DBPS. 1 plate was exposed to UVA radiation at a dose of 6 J/cm^2 using a solar light simulator (Solar Simulator, Atlas) as its source (+UVA plate). The second plate was placed in a dark place outside the incubator for the same period of time (−UVA plate). After exposure, inserts from both plates were rinsed with DPBS, dried with a sterile cotton bud and placed in new plates containing 0.9 mL of fresh growth medium and incubated for 21 hours. […] After this time, the formed formazan was extracted into isopropanol and the absorbance of all samples was read at 270 nm.
Another data set concerns CHO-K1 cells. Kind of data set: Cytotoxicity (MTT) in CHO-K1 cells before the micronucleus test. The conditions noted are these: 24 hours. The format is cell-based, Chinese hamster. The procedure: The assay was performed using a Chinese hamster ovary cell line (CHO-K1) purchased from the American Type Culture Collection (ATCC). The cells were cultured in F-12K medium with the addition of 10% fetal bovine serum (FBS) and antibiotics (streptomycin/penicillin) in an incubator at 37° C. and 5% CO2 concentration). Before the actual micronucleus test, a cytotoxicity assessment was performed to ensure that the actual test was performed only at safe concentrations. For this purpose, cells were transferred to 96-well plates and incubated with the tested compounds for 24 hours. After this time, the MTT test was performed and cell viability was assessed in comparison to the control group (cells cultured with DMSO at the same concentration as in the case of the tested samples).

The subject of a further data set is S. typhimurium TA98. Kind of data set: Ames microplate test, TA98. The conditions noted are these: without S9. The class given is cell-based, Salmonella typhimurium. The procedure: (§1) Bacteria were grown overnight in growth medium.
The target in data set [5] is T1, tyrosinase from mushroom (Agaricus bisporus, UniProt C7FF04). In words: Inhibition of commercial mushroom tyrosinase, substrate L-tyrosine. The format is biochemical. The settings on record: 500 μM; read-out: Tyrosinase inhibition with L-tyrosine [%]. A digest of the protocol: (§2)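 Compounds at final 500, 250 or 125 μM with tyrosinase (1 or 3 U/well) in 50 mM phosphate buffer pH 6.8; reaction started with L-tyrosine (monophenolase) or L-DOPA (diphenolase). After 25 min, absorbance at 475 nm; % inhibition versus DMSO control.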

Data set [6] in a line: Lipophilicity coefficient RM0 by reversed phase thin layer chromatography. The format is physicochemical. The conditions noted are these: RP-18 TLC, methanol/phosphate buffer pH=7.4. A digest of the protocol: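 RP-18 F254 TLC plates developed at room temperature in methanol/100 mM phosphate buffer pH 7.4, methanol 95–65% (v/v), spots seen under UV 254 nm, in duplicate. RM = log(1/Rf − 1) regressed linearly against methanol content to give RM0.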

In the next data set the test system is S. typhimurium TA1535. Kind of data set: Ames microplate test, TA1535.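 Note: bacteria exposed 90 min at 37 °C in exposure medium, then 48 h in indicator medium in 384-well plates, yellow (revertant) wells counted per condition.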 The conditions noted are these: without S9.
Data set [7] addresses T1, tyrosinase from mushroom. In words: Inhibition of commercial mushroom tyrosinase, substrate L-DOPA. The format is biochemical. The conditions noted are these: 500 μM; read-out: Tyrosinase inhibition with L-DOPA [%]. A digest of the protocol: as §2
The subject of the next data set is E. coli WP2. In words: Ames microplate test, E. coli WP2.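 Note: bacteria exposed to compound for 90 min at 37 °C in 24-well plates, then transferred with indicator medium to 384-well plates and incubated 48 h before yellow well counting.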 The settings on record: without S9.
In another data set the test system is S. typhimurium TA1537. Kind of data set: Ames microplate test, TA1537. The format is cell-based, Salmonella typhimurium. The conditions noted are these: without S9. The procedure: as §1
A further data set has as its system S. typhimurium TA100. In words: Ames microplate test, TA100. The format is cell-based, Salmonella typhimurium. The conditions noted are these: without S9.
Data set [8] deals with B16-F10 murine melanoma cell line. Kind of data set: Cytotoxicity (MTT) in B16-F10 murine melanoma cells. The conditions noted are these: 48 h. The class given is cell-based. The essentials:
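B16-F10 cells seeded 5000/well in F10-Ham with 1% FBS, grown 24 h, then exposed to compound at various concentrations for 48 h. MTT formazan dissolved in DMSO, absorbance at 570 nm; viability as % of DMSO control (AT/AC×100).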

Data set [9] has as its system tyrosinase. The settings on record: literature [11], cited from earlier work.
For data set [10], the system named is human reconstructed epidermis Episkin. In words: Skin irritation test in reconstructed human epidermis Episkin. The format is cell-based. The settings on record: 15 min exposure. The text has this: Skin Irritation Tests in a Reconstructed Human Epidermis Model (Episkin™)
[11] abbreviates: literature [7], read-out: IC50, tyrosinase inhibition.
The mark [12] stands for this setting: literature [6], read-out: IC50, tyrosinase diphenolase activity.

SMILES strings stand for the structures. Where two headings read alike, the source gives them in different places.

T1 sequence (C7FF04 2-392): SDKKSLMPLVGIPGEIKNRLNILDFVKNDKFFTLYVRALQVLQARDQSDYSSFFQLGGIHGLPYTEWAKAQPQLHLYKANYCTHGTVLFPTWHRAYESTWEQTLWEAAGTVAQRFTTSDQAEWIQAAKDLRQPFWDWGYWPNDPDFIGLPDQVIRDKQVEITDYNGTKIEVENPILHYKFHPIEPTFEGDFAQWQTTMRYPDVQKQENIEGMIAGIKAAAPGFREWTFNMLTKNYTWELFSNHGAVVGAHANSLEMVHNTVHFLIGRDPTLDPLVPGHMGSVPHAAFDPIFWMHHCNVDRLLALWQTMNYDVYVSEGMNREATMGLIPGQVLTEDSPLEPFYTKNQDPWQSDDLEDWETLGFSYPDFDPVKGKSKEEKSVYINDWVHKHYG
T1 sequence (G1K3P4 entry or part of it, further chain): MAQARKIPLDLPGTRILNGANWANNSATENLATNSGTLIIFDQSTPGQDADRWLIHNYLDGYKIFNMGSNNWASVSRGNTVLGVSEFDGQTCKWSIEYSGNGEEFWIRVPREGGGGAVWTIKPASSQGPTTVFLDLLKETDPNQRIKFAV
Method for S. typhimurium TA100: (§3) The study used the Ames microplate test (Ames MPF™ Penta 2 by Xenometrix, Allschwil, Switzerland). Growth medium, exposure medium, indicator medium, positive controls, hepatic microsomal fraction, NADP, glucose-6-phosphate, Salmonella typhimurium and Escherichia coli strains were components of the purchased experimental kit. Bacteria were grown overnight in growth medium. They were then exposed to the test compound at the appropriate concentration in exposure medium without or with the rat microsomal fraction S9 in 24-well plates for 90 min at 37° C. with shaking. Then, indicator medium was added to the wells and pipetted into 384-well plates, which were incubated for 48 hours at 37° C. without shaking. Results were assessed by counting the wells in which the medium turned yellow for each experimental condition.
Method for S. typhimurium TA1535: as §3

`O=C(O)C=Cc1ccc(Cl)cc1Cl` [2,4-dichlorocinnamic acid]: in the data set on tyrosinase [1], the “mechanism of tyrosinase inhibition” value was “reversible non-competitive mechanism”. Further, on tyrosinase [1] (setting [11]), the IC50 (usually the midpoint of a concentration-inhibition curve) was 295 µM.
On to `O=C(O)C=Cc1ccccc1Cl` [2-Chlorocinnamic acid], for which, in the data set with tyrosinase [1], the “mechanism of tyrosinase inhibition” value was “reversible non-competitive mechanism”. At tyrosinase [1] (setting [11]), the IC50 was 765 µM.
As to `O=C(O)C=Cc1ccc(O)cc1` [4-Hydroxycinnamic acid], on tyrosinase [1] (setting [12]), the IC50 is 500 µM. Moreover, the “inhibition of erythema formation” value in data set [2] is given as 77%.
For `COc1ccc(C=CC(=O)O)cc1` [4-methoxycinnamic acid], the IC50 on tyrosinase [1] (setting [12]) was 420 µM.
For the compound `CN(C)CCCN1c2ccccc2Sc2ccc(Cl)cc21` [Chlorpromazine, reference compound], the phototoxic potential result in [3] is reported as “clearly indicate its phototoxic potential”. In addition, in [3] (mouse, 1 h), the “MPE (mean phototoxic effect)” value is 0.499 and the “PIF (photoirritation factor)” value amounted to 25.618. For the same compound, in data set [4], the “Viability [% relative to water] ± SD, +UVA” value is reported as 26.97 ± 6.05 % relative to water and the “Viability [% relative to water] ± SD, −UVA” value is reported as 99.52 ± 9.41 % relative to water.
Take `O=C(O)C=Cc1ccccc1` [Cinnamic acid]: the “mechanism of tyrosinase inhibition” value in the data set on tyrosinase [1] was “non-competitive inhibitor”.
For `CC(CO)NC(=O)/C=C/c1ccc(Cl)cc1` (centres unmarked) [Compound A-102, (2E)-3-(4-chlorophenyl)-N-(1-hydroxypropan-2-yl)prop-2-enamide], the figures for the “% Viability [mean], CHO-K1” value in the data set with CHO-K1 cells (100 μM), in the data set with CHO-K1 cells (150 μM) and with CHO-K1 cells (200 μM) were 84.7%, 69.9% and 87.2%, respectively. The “Increase in the number of yellow wells compared to the reference level, TA98” value came to 0.24 in the data set with S. typhimurium TA98 (0.5 mM), 0.24 in the data set on S. typhimurium TA98 (1.0 mM) and 0.35 with S. typhimurium TA98 (2.0 mM). Further, the inhibition (usually the change of the read-out against control, counted positive when it falls) at 500 µM is 75.5 ± 1.8% on tyrosinase from mushroom [5] and 53 ± 1.99% at tyrosinase from mushroom [7]. Moreover, the RM0 in data set [6] turned out to be 2.12. Also, the “Increase in the number of yellow wells compared to the reference level, TA1535” value in the data set on S. typhimurium TA1535 (0.5 mM) worked out at 0.55; in the data set with S. typhimurium TA1535 (1.0 mM), 0.14; with S. typhimurium TA1535 (2.0 mM) it was 0.89. Moreover, the “Increase in the number of yellow wells compared to the reference level, E. coli WP2” value worked out at 0.48 in the data set with E. coli WP2 (0.5 mM), 1.03 in the data set on E. coli WP2 (1.0 mM) and 0.79 with E. coli WP2 (2.0 mM). The entries for the “Increase in the number of yellow wells compared to the reference level, TA1537” value in the data set on S. typhimurium TA1537 (0.5 mM), in the data set with S. typhimurium TA1537 (1.0 mM) and in the data set with S. typhimurium TA1537 (2.0 mM) were 0.33, 0.00 and 1.00, respectively. Besides, the “Increase in the number of yellow wells compared to the reference level, TA100” value in the data set with S. typhimurium TA100 (0.5 mM) came out at 1.08; in the data set on S. typhimurium TA100 (1.0 mM) it was 0.75; in the data set on S. typhimurium TA100 (2.0 mM), 0.92. Moreover, the entries for the “Cytotoxicity study in B16F10 cells, % viability” value in [8] (150 μM), in [8] (200 μM) and in [8] (250 μM) were 80.6%, 83.5% and 75.7%, respectively.
Take `CCOC(=O)[C@H](Cc1ccccc1)NC(=O)/C=C/c1ccc(O)c(OC)c1` [N-[3-(4-hydroxy-3-methoxyphenyl)-1-oxo-2-propen-1-yl]-L-phenylalanine ethyl ester]: in the data set with tyrosinase [9], the “type of tyrosinase inhibition” value is reported as “mixed type of inhibition”. At tyrosinase [9] (read-out: IC50, tyrosinase inhibition), the IC50 is 0.185 ± 0.005 µM.
Regarding `CCCCCCCCCCCCOS(=O)(=O)[O-].[Na+]` [SDS, sodium dodecyl sulphate], the “IL-1α concentration in the culture medium” value in [10] (42 h incubation, compounds as PEG400 solutions 26 mg/cm^2, SDS 5% aqueous) is on record as over 250 pg/mL. Besides, the tissue viability in [10] (compared to the negative control (PBS and PEG400), 5% aqueous SDS) is on record as 23.8%.
